“And” between values parts separate entries of the source, which are not always exact repeats. Identical values can stand only once. Toxic doses and inconclusive results are not listed.
Tested on: CD2F1 mice, L1210 leukemia sc, survival T/C
Test: NCI In Vivo Anticancer Drug Screen. Data for tumor model L1210 Leukemia (subcutaneous) in CD2F1 (CDF1) mice
Details: endpoint: median survival time, higher = longer survival
How it was run: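 Mice with transplanted tumor dosed; survival/tumor size read; T/C vs vehicle controls.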

[1] = dose: 180.0 mg/kg/injection, schedule: Q01DX Z (sc), vehicle: water

For CN(N=O)C(=O)N[C@@H](C=O)[C@@H](O)[C@H](O)[C@H](O)CO, the T/C (dose: 12.5 mg/kg/injection, schedule: Q01DX009 (ip), vehicle: other) was 110 % of control, the T/C (dose: 12.5 mg/kg/injection, schedule: Q01DX009 (sc), vehicle: other) was 104 % of control and 109 % of control and the T/C (dose: 25.0 mg/kg/injection, schedule: Q01DX009 (ip), vehicle: other) was 124 % of control. For the same molecule, the T/C (dose: 25.0 mg/kg/injection, schedule: Q01DX009 (sc), vehicle: other) was 106 % of control and 122 % of control, the T/C (dose: 50.0 mg/kg/injection, schedule: Q01DX009 (sc), vehicle: other) was 109 % of control and the T/C (dose: 100.0 mg/kg/injection, schedule: Q01DX009 (ip), vehicle: other) was 121 % of control. For the same molecule, the T/C (dose: 100.0 mg/kg/injection, schedule: Q01DX009 (sc), vehicle: other) was 115 % of control and the T/C (dose: 200.0 mg/kg/injection, schedule: Q01DX009 (sc), vehicle: other) was 111 % of control.
With COc1cccc2c1C(=O)c1c(O)c3c(c(O)c1C2=O)C[C@@](O)(C(=O)CO)C[C@@H]3OC1CC(OC(C)=O)C(OC(C)=O)C(C)O1 (stereo not given in full) the T/C (dose: 1.56 mg/kg/injection, schedule: Q01DX009 (ip), vehicle: distilled water + Tween-80) was 106 % of control, the T/C (dose: 1.57 mg/kg/injection, schedule: Q01DX009 (ip), vehicle: distilled water + Tween-80) was 105 % of control and the T/C (dose: 3.13 mg/kg/injection, schedule: Q01DX009 (ip), vehicle: distilled water + Tween-80) was 105 % of control and 114 % of control. The T/C (dose: 12.5 mg/kg/injection, schedule: Q01DX009 (ip), vehicle: distilled water + Tween-80) was 182 % of control and 195 % of control.
For O=c1n[n+]([O-])ccn1C1OC(CO)C(O)C1O (stereo not given), the T/C (dose: 172.8 mg/kg/injection, schedule: Q01DX009 (ip), vehicle: saline) was 109 % of control, the T/C (dose: 288.0 mg/kg/injection, schedule: Q01DX009 (ip), vehicle: saline) was 123 % of control and the T/C (dose: 480.0 mg/kg/injection, schedule: Q01DX009 (ip), vehicle: saline) was 152 % of control.
For COC1=C(N)C(=O)c2nc(-c3nc(C(=O)O)c(C)c(-c4ccc(OC)c(OC)c4O)c3N)ccc2C1=O, the T/C (dose: 0.13 mg/kg/injection, schedule: Q01DX Z (sc), vehicle: water) was 110 % of control, the T/C (dose: 0.22 mg/kg/injection, schedule: Q01DX Z (sc), vehicle: water) was 110 % of control and the T/C (dose: 0.36 mg/kg/injection, schedule: Q01DX Z (sc), vehicle: water) was 110 % of control. For the same molecule, the T/C (dose: 0.6 mg/kg/injection, schedule: Q01DX Z (sc), vehicle: water) was 105 % of control and the T/C (dose: 1.0 mg/kg/injection, schedule: Q01DX Z (sc), vehicle: water) was 110 % of control.
With C[C@]12C=CC(=O)C=C1CC[C@@H]1[C@@H]2C(=O)C[C@@]2(C)[C@H]1CC[C@]2(O)C(=O)CO the T/C [1] was 122 % of control, the T/C (dose: 180.0 mg/kg/injection, schedule: Q02DX Z (sc), vehicle: water) was 154 % of control and the T/C (dose: 500.0 mg/kg/injection, schedule: Q#A X Z (sc), vehicle: water) was 122 % of control.
In the case of COc1ccc2c(c1OC)C(=O)O[C@@H]2[C@H]1c2c(cc3c(c2OC)OCO3)CCN1C, the T/C (dose: 14.0 mg/kg/injection, schedule: Q01DX Z (sc), vehicle: water) is reported as 100 % of control, the T/C (dose: 23.0 mg/kg/injection, schedule: Q01DX Z (sc), vehicle: water) is reported as 100 % of control and the T/C (dose: 39.0 mg/kg/injection, schedule: Q01DX Z (sc), vehicle: water) is reported as 100 % of control. The T/C (dose: 65.0 mg/kg/injection, schedule: Q01DX Z (sc), vehicle: water) was 100 % of control, the T/C (dose: 108.0 mg/kg/injection, schedule: Q01DX Z (sc), vehicle: water) was 100 % of control and the T/C [1] was 100 % of control. The T/C (dose: 300.0 mg/kg/injection, schedule: Q01DX Z (sc), vehicle: water) was 100 % of control and the T/C (dose: 500.0 mg/kg/injection, schedule: Q01DX Z (sc), vehicle: water) was 100 % of control.
CC/C(=C(/CC)c1ccc(O)cc1)c1ccc(O)cc1 was tested, and the T/C (dose: 12.5 mg/kg/injection, schedule: Q01DX009 (ip), vehicle: saline with Tween-80) was 103 % of control, the T/C (dose: 12.5 mg/kg/injection, schedule: Q01DX009 (sc), vehicle: saline with Tween-80) was 98 % of control and the T/C (dose: 25.0 mg/kg/injection, schedule: Q01DX009 (ip), vehicle: saline with Tween-80) was 104 % of control. For the same molecule, the T/C (dose: 25.0 mg/kg/injection, schedule: Q01DX009 (sc), vehicle: saline with Tween-80) was 98 % of control and 100 % of control, the T/C (dose: 50.0 mg/kg/injection, schedule: Q01DX009 (ip), vehicle: saline with Tween-80) was 100 % of control and the T/C (dose: 50.0 mg/kg/injection, schedule: Q01DX009 (sc), vehicle: saline with Tween-80) was 102 % of control. For the same molecule, the T/C (dose: 100.0 mg/kg/injection, schedule: Q01DX009 (ip), vehicle: saline with Tween-80) was 97 % of control, the T/C (dose: 100.0 mg/kg/injection, schedule: Q01DX009 (sc), vehicle: saline with Tween-80) was 96 % of control and 97 % of control and the T/C (dose: 200.0 mg/kg/injection, schedule: Q01DX009 (ip), vehicle: saline with Tween-80) was 96 % of control. The T/C (dose: 200.0 mg/kg/injection, schedule: Q01DX009 (sc), vehicle: saline with Tween-80) was 106 % of control and the T/C (dose: 400.0 mg/kg/injection, schedule: Q01DX009 (sc), vehicle: saline with Tween-80) was 101 % of control.
O=c1[nH]c(=O)n(C2CC(O)C(CO)O2)cc1F (stereo not given) was tested, and the T/C (dose: 5.0 mg/kg/injection, schedule: Q01DX009 (ip), vehicle: saline) was 107 % of control, the T/C (dose: 5.0 mg/kg/injection, schedule: Q01DX009 (sc), vehicle: saline) was 104 % of control and the T/C (dose: 10.0 mg/kg/injection, schedule: Q01DX009 (ip), vehicle: saline) was 108 % of control. For the same molecule, the T/C (dose: 10.0 mg/kg/injection, schedule: Q01DX009 (sc), vehicle: saline) was 109 % of control, the T/C (dose: 15.6 mg/kg/injection, schedule: Q01DX006 (ip), vehicle: saline) was 112 % of control and the T/C (dose: 15.6 mg/kg/injection, schedule: Q01DX009 (ip), vehicle: saline) was 118 % of control. For the same molecule, the T/C (dose: 20.0 mg/kg/injection, schedule: Q01DX009 (ip), vehicle: saline) was 119 % of control, the T/C (dose: 20.0 mg/kg/injection, schedule: Q01DX009 (sc), vehicle: saline) was 106 % of control and 121 % of control and the T/C (dose: 30.0 mg/kg/injection, schedule: Q01DX009 (sc), vehicle: saline) was 107 % of control. The T/C (dose: 31.3 mg/kg/injection, schedule: Q01DX006 (ip), vehicle: saline) was 106 % of control, the T/C (dose: 31.3 mg/kg/injection, schedule: Q01DX009 (ip), vehicle: saline) was 118 % of control and the T/C (dose: 31.3 mg/kg/injection, schedule: Q02DX005 (ip), vehicle: saline) was 112 % of control. The T/C (dose: 31.3 mg/kg/injection, schedule: Q04DX003 (ip), vehicle: saline) was 112 % of control, the T/C (dose: 40.0 mg/kg/injection, schedule: Q01DX009 (ip), vehicle: saline) was 122 % of control and the T/C (dose: 40.0 mg/kg/injection, schedule: Q01DX009 (sc), vehicle: saline) was 122 % of control. For the same molecule, the T/C (dose: 60.0 mg/kg/injection, schedule: Q01DX009 (ip), vehicle: saline) was 124 % of control, the T/C (dose: 62.5 mg/kg/injection, schedule: Q01DX001 (ip), vehicle: saline) was 112 % of control and the T/C (dose: 62.5 mg/kg/injection, schedule: Q04DX003 (ip), vehicle: saline) was 100 % of control. The T/C (dose: 80.0 mg/kg/injection, schedule: Q01DX009 (ip), vehicle: saline) was 118 % of control, the T/C (dose: 120.0 mg/kg/injection, schedule: Q01DX009 (ip), vehicle: saline) was 110 % of control and the T/C (dose: 120.0 mg/kg/injection, schedule: Q01DX009 (sc), vehicle: saline) was 106 % of control. For the same molecule, the T/C (dose: 125.0 mg/kg/injection, schedule: Q01DX001 (ip), vehicle: saline) was 112 % of control, the T/C (dose: 125.0 mg/kg/injection, schedule: Q01DX009 (ip), vehicle: saline) was 150 % of control and the T/C (dose: 125.0 mg/kg/injection, schedule: Q02DX005 (ip), vehicle: saline) was 118 % of control. The T/C (dose: 125.0 mg/kg/injection, schedule: Q04DX003 (ip), vehicle: saline) was 112 % of control, the T/C (dose: 130.0 mg/kg/injection, schedule: Q01DX Z (sc), vehicle: saline) was 116 % of control and the T/C (dose: 160.0 mg/kg/injection, schedule: Q01DX009 (ip), vehicle: saline) was 106 % of control and 123 % of control. The T/C (dose: 160.0 mg/kg/injection, schedule: Q01DX009 (sc), vehicle: saline) was 112 % of control, the T/C (dose: 216.0 mg/kg/injection, schedule: Q01DX Z (sc), vehicle: saline) was 116 % of control and the T/C (dose: 240.0 mg/kg/injection, schedule: Q01DX009 (ip), vehicle: saline) was 96 % of control. For the same molecule, the T/C (dose: 250.0 mg/kg/injection, schedule: Q01DX006 (ip), vehicle: saline) was 162 % of control, the T/C (dose: 250.0 mg/kg/injection, schedule: Q01DX009 (ip), vehicle: saline) was 162 % of control and the T/C (dose: 250.0 mg/kg/injection, schedule: Q02DX005 (ip), vehicle: saline) was 150 % of control. The T/C (dose: 360.0 mg/kg/injection, schedule: Q01DX Z (sc), vehicle: saline) was 116 % of control, the T/C (dose: 500.0 mg/kg/injection, schedule: Q02DX005 (ip), vehicle: saline) was 156 % of control and the T/C (dose: 500.0 mg/kg/injection, schedule: Q04DX003 (ip), vehicle: saline) was 150 % of control. The T/C (dose: 600.0 mg/kg/injection, schedule: Q01DX Z (sc), vehicle: saline) was 108 % of control and the T/C (dose: 1000.0 mg/kg/injection, schedule: Q01DX001 (ip), vehicle: saline) was 150 % of control.

From PubChem BioAssay AID258 (DTP/NCI, 2004)
